Measurements taken from patent US20170247326A1, “Substituted Pyrrolidine Carboxamide Compounds” (EPIZYME, INC., priority 2014, published 2017).

The molecules below were run against T1, SMYD2 (Homo sapiens, UniProt Q9NRG4) (assay: SMYD2 biochemical assay (3H-SAM, biotinylated peptide substrate, Flashplate)). Conditions: Table 1; average of n = 1 to n = 50; read-out: SMYD2 Biochem IC50.
T1 construct: Full length SMYD2 (NP_064582.2) was cloned; His6 (N, cleaved yes); FLAG (N); made in house; host or cells: Sf9 insect cells
T1 sequence (Q9NRG4 whole entry): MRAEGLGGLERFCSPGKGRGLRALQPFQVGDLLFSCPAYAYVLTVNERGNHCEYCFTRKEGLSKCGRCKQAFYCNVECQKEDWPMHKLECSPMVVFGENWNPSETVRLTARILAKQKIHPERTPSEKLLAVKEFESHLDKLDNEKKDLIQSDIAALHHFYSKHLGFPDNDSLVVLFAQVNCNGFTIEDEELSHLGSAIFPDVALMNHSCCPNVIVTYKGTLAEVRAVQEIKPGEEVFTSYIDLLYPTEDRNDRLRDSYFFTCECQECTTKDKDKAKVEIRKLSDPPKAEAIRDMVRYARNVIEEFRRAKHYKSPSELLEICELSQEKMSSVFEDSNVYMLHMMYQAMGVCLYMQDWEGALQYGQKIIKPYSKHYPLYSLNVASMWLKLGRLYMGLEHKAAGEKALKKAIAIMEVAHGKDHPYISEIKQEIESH
Source text: S-adenosylmethionine (SAM), S-adenosylhomocysteine (SAH), bicine, Tween20, dimethylsulfoxide (DMSO), bovine skin gelatin (BSG), and Tris(2-carboxyethyl)phosphine hydrochloride (TCEP) were purchased from Sigma-Aldrich at the highest level of purity possible. ^3H-SAM was purchase from American Radiolabeled Chemicals with a specific activity of 80 Ci/mmol. 384-well streptavidin Flashplates were purchased from PerkinElmer.
Peptide was synthesized with a N-terminal linker-affinity tag motif and a C-terminal amide cap by 21st Century Biochemicals. The peptide was high high-performance liquid chromatography (HPLC) purified to greater than 95% purity and confirmed by liquid chromatography mass spectrometry (LC-MS). The sequence was […](K-Biot)-amide. (SEQ ID NO: 3)
Full length SMYD2 (NP_064582.2) was cloned into a pFastbac-Htb-lic vector with an N-terminal His6 tag and FLAG tag, preceded by a TEV protease cleavage site. The protein was expressed in Sf9 insect cells. Cells were resuspended in lysis buffer (25 mM HEPES-NaOH, pH 7.5, 200 mM NaCl, 5% glycerol, and 5 mM […] and lysed by sonication. The protein was purified by Ni-NTA (Qiagen), followed by TEV cleavage to remove the His6 tag, subtractive Ni-NTA (Qiagen), and gel filtration chromatography using an S200 column (GE Healthcare). Purified protein was stored in 20 mM Tris-HCl, pH 8.0, 100 mM NaCl, and 1 mM TCEP.
General Procedure for SMYD2 Enzyme Assays on Peptide Substrates
The assays were all performed in a buffer consisting of 20 mM Bicine (pH=7.6), 1 mM TCEP, 0.005% Bovine Skin Gelatin, and 0.002% Tween20, prepared on the day of use. Compounds in 100% DMSO (1 ul) were spotted into a polypropylene 384-well V-bottom plates (Greiner) using a Platemate Plus outfitted with a 384-channel head (Thermo Scientific). DMSO (1 ul) was added to Columns 11, 12, 23, 24, rows A-H for the maximum signal control and 1 ul of SAH, a known product and inhibitor of SMYD2, was added to columns 11, 12, 23, 24, rows I-P for the minimum signal control. A cocktail (40 ul) containing the SMYD2 enzyme was added by Multidrop Combi (Thermo-Fisher). The compounds were allowed to incubate with SMYD2 for 30 min at room temperature, then a cocktail (10 ul) containing ^3H-SAM and peptide was added to initiate the reaction (final volume=51 ul). The final concentrations of the components were as follows: SMYD2 was 1.5 nM, ^3H-SAM was 10 nM, and peptide was 60 nM, SAH in the minimum signal control wells was 1000 uM, and the DMSO concentration was 2%. The assays were stopped by the addition of non-radioactive SAM (10 ul) to a final concentration of 600 uM, which dilutes the ^3H-SAM to a level where its incorporation into the peptide substrate is no longer detectable. 50 ul of the reaction in the 384-well polypropylene plate was then transferred to a 384-well Flashplate and the biotinylated peptides were allowed to bind to the streptavidin surface for at least 1 hour before being washed three times with 0.1% Tween20 in a Biotek ELx405 plate washer. The plates were then read in a PerkinElmer TopCount plate reader to measure the quantity of ^3H-labeled peptide bound to the Flashplate surface, measured as disintegrations per minute (dpm) or alternatively, referred to as counts per minute (cpm).
Where dpm=disintegrations per minute, cmpd=signal in assay well, and min and max are the respective minimum and maximum signal controls.
Where top and bottom are the normally allowed to float, but may be fixed at 100 or 0 respectively in a 3-parameter fit. The Hill Coefficient normally allowed to float but may also be fixed at 1 in a 3-parameter fit. I is the compound concentration.
SMYD2 biochemical assay data for representative Compounds of the Disclosure are presented in Tables 1, 3, and 4 in the column titled “SMYD2 Bicohem IC50 (μM).”

IC50 | Structure (SMILES)
> 50 µM | C[C@H]1CN(C2CC2)C[C@H]1NC(=O)c1ccc(N2CCCC2)cc1 (racemic) [compound 21, (±)-cis-N-(1-cyclopropyl-4-methylpyrrolidin-3-yl)-4-(pyrrolidin-1-yl)benzamide]
> 50 µM | CCc1cc(C(=O)N[C@H]2CN(C3CC3)C[C@@H]2C)ns1 (racemic) [compound 11, (±)-trans-N-(1-cyclopropyl-4-methylpyrrolidin-3-yl)-5-ethylisothiazole-3-carboxamide]
> 50 µM | C[C@H]1CN(C2CC2)C[C@@H]1NC(=O)Cc1ccc2c(c1)NC(=O)CO2 (racemic) [compound 3, (±)-trans-N-(1-cyclopropyl-4-methylpyrrolidin-3-yl)-2-(3-oxo-3,4-dihydro-2H-benzo[b][1,4]oxazin-6-yl)acetamide]
> 50 µM | C[C@@H]1CN(C2CC2)C[C@H]1NC(=O)c1cc(O)nn1C (racemic) [compound 15, (±)-trans-H-(1-cyclopropyl-4-methylpyrrolidin-3-yl)-3-hydroxy-1-methyl-1H-pyrazole-5-carboxamide]
> 50 µM | C[C@H]1CN(C2CC2)C[C@H]1NC(=O)c1ccc2[nH]c(=O)oc2c1 (racemic) [compound 14, (±)-cis-N-(1-cyclopropyl-4-methylpyrrolidin-3-yl)-2-oxo-2,3-dihydrobenzo[d]oxazole-6-carboxamide]
7.1 µM | CCc1cc(C(=O)N[C@@H]2CN(C3CC3)C[C@@H]2C)ns1 (racemic) [compound 12, (±)-cis-N-(1-cyclopropyl-4-methylpyrrolidin-3-yl)-5-ethylisothiazole-3-carboxamide]
> 50 µM | C[C@H]1CN(C2CC2)C[C@@H]1NC(=O)c1ccc2[nH]c(=O)[nH]c2c1 (racemic) [compound 22, (±)-trans-N-(1-cyclopropyl-4-methylpyrrolidin-3-yl)-2-oxo-2,3-dihydro-1H-benzo[d]imidazole-5-carboxamide]

Same assay, conditions: Table 3; average of n = 1 to n = 50; read-out: SMYD2 Biochem IC50

Structure (SMILES) | IC50
CC(C)N1C[C@@H](C)[C@@H](NC(=O)c2cc(C3CC3)n(C)n2)C1 (racemic) [compound 89, (±)-cis-5-cyclopropyl-1-methyl-N-[4-methyl-1-(propan-2-yl)pyrrolidin-3-yl]-1H-pyrazole-3-carboxamide] | > 50 µM
CC(C)N1C[C@@H](C)[C@H](NC(=O)c2nc(C3CC3)cs2)C1 (racemic) [compound 36, (±)-trans-4-cyclopropyl-N-[4-methyl-1-(propan-2-yl)pyirolidin-3-yl]-1,3-thiazole-2-carboxamide] | > 50 µM
CC1CN(C(C)C)CC1NC(=O)c1ccn(C(C)C)n1 (racemic) [compound 44, (±)-trans-N-[4-methyl-1-(propan-2-yl)pyrrolidin-3-yl]-1-(propan-2-yl)-1H-pyrazole-3-carboxamide] | > 50 µM
CC(C)N1C[C@H](C)[C@H](NC(=O)c2coc(C3CC3)n2)C1 (racemic) [compound 63, (±)-cis-2-cyclopropyl-N-[4-methyl-1-(propan-2-yl)pyrrolidin-3-yl]-1,3-oxazole-4-carboxamide] | > 50 µM
CC(C)N1C[C@H](C)[C@H](NC(=O)c2cc(C3CC3)cnn2)C1 (stereo in doubt) [compound 98, rel-5-cyclopropyl-N-[(3S,4S)-4-methyl-1-(propan-2-yl)pyrrolidin-3-yl]pyridazine-3-carboxamide] | 2.09 µM
C[C@H]1CN(Cc2ccc(OCc3ccccc3)cc2)C[C@@H]1NC(=O)c1cc(C2CC2)cnn1 (racemic) [compound 107, (±)-trans-N-(1-{[4-(benzyloxy)phenyl]methyl}-4-methylpyrrolidin-3-yl)-5-cyclopropylpyridazine-3-carboxamide] | 2.7 µM
CC(C)N1C[C@@H](C)[C@H](NC(=O)CCN2CCCC2)C1 (racemic) [compound 55, (±)-trans-N-[4-methyl-1-(propan-2-yl)pyrrolidin-3-yl]-3-(pyrrolidin-1-yl)propanamide] | > 50 µM
CC(C)N1C[C@H](C)[C@H](NC(=O)c2ncc(C3CC3)s2)C1 (racemic) [compound 69, (±)-cis-5-cyclopropyl-N-[4-methyl-1-(propan-2-yl)pyrrolidin-3-yl]-1,3-thiazole-2-carboxamide] | 3.3 µM
CC(C)N1C[C@H](C)[C@H](NC(=O)c2cc(C3CC3)sn2)C1 (racemic) [compound 93, (±)-cis-5-cyclopropyl-N-[4-methyl-1-(propan-2-yl)pyrrolidin-3-yl]-1,2-thiazole-3-carboxamide] | 0.776 µM
CC(C)N1C[C@H](C)[C@H](NC(=O)c2ncc(C3CC3)o2)C1 (racemic) [compound 76, (±)-cis-5-cyclopropyl-N-[4-methyl-1-(propan-2-yl)pyrrolidin-3-yl]-1,3-oxazole-2-carboxamide] | 6.77 µM
CC(C)N1C[C@@H](C)[C@H](NC(=O)c2ccn(C(C)C)n2)C1 (racemic) [compound 45, (±)-trans-N-[4-methyl-1-(propan-2-yl)pyrrolidin-3-yl]-1-(propan-2-yl)-1H-pyrazole-3-carboxamide] | > 50 µM
CC(C)N1C[C@@H](C)[C@H](NC(=O)c2cnc(C3CC3)o2)C1 (racemic) [compound 70, (±)-trans-2-cyclopropyl-N-[4-methyl-1-(propan-2-yl)pyrrolidin-3-yl]-1,3-oxazole-5-carboxamide] | > 50 µM
CC(C)N1C[C@H](C)[C@H](NC(=O)c2nnc(C3CC3)o2)C1 (racemic) [compound 53, (±)-cis-5-cyclopropyl-N-[4-methyl-1-(propan-2-yl)pyrrolidin-3-yl]-1,3,4-oxadiazole-2-carboxamide] | 4.64 µM
CC(C)N1C[C@H](C)[C@H](NC(=O)c2nc(C3CC3)no2)C1 (racemic) [compound 81, (±)-cis-3-cyclopropyl-N-[4-methyl-1-(propan-2-yl)pyrrolidin-3-yl]-1,2,4-oxadiazole-5-carboxamide] | > 50 µM
CC(C)N1C[C@@H](C)[C@H](NC(=O)c2cn(C(C)C)nn2)C1 (racemic) [compound 24, (±)-trans-N-[4-methyl-1-(propan-2-yl)pyrrolidin-3-yl]-1-(propan-2-yl)-1H-1,2,3-triazole-4-carboxamide] | > 50 µM

Continued, values first:

IC50 | Structure (SMILES)
> 50 µM | CC(C)N1C[C@H](C)[C@H](NC(=O)c2cc(C3CC3)[nH]n2)C1 (racemic) [compound 61, (±)-cis-5-cyclopropyl-N-[4-methyl-1-(propan-2-yl)pyrrolidin-3-yl]-1H-pyrazole-3-carboxamide]
16.7 µM | CC(C)N1C[C@H](C)[C@H](NC(=O)c2cc(C3CC3)ncn2)C1 (racemic) [compound 50, (±)-cis-6-cyclopropyl-N-[4-methyl-1-(propan-2-yl)pyrrolidin-3-yl]pyrimidine-4-carboxamide]
> 50 µM | CC(C)N1C[C@H](C)[C@H](NC(=O)c2cncc(C3CC3)c2)C1 (racemic) [compound 90, (±)-cis-5-cyclopropyl-N-[4-methyl-1-(propan-2-yl)pyrrolidin-3-yl]pyridine-3-carboxamide]
1.67 µM | C[C@H]1CN(C)C[C@H]1NC(=O)c1cc(C2CC2)cnn1 (racemic) [compound 103, (±)-cis-5-cyclopropyl-N-(1,4-dimethylpyrrolidin-3-yl)pyridazine-3-carboxamide]
> 50 µM | CC(C)N1C[C@H](C)[C@H](NC(=O)c2ccc(N3CCCC3)cc2)C1 (racemic) [compound 30, (±)-cis-N-[4-methyl-1-(propan-2-yl)pyrrolidin-3-yl]-4-(pyrrolidin-1-yl)benzamide]
